Assay: xn = mol fraction of the nth substance listed

CC(=O)[O-].CC[N+]1(C)CCOCC1 + O
viscosity [mPa·s], 100 kPa
Conditions	x1 = 0.0567	x1 = 0.0886	x1 = 0.1794	x1 = 0.253	x1 = 0.3334	x1 = 0.4341	x1 = 0.4928	x1 = 0.5718	x1 = 0.6609	x1 = 0.7155
298.15 K	3.5	7.01	36.6	89.4	203	541	671	1472	–	–
303.15 K	3.03	5.93	31.9	66	143	347	503	1093	–	–
308.15 K	2.65	5.05	27	50	104	228	383	795	1969	–
313.15 K	2.34	4.33	22.5	38.7	78.1	150	278	566	1355	2266
318.15 K	2.08	3.73	18.2	30.7	59.8	123	198	396	908	1518
323.15 K	1.86	3.25	15	24.8	46.8	92.9	144	276	599	971

CCNCC + O=C1CCCCC1
298.15 K, 101 kPa
Conditions	viscosity [mPa·s]
x2 = 0.076	0.296
x2 = 0.157	0.338
x2 = 0.2421	0.415
x2 = 0.3319	0.502
x2 = 0.427	0.639
x2 = 0.5278	0.79
x2 = 0.6349	0.97
x2 = 0.7488	1.224
x2 = 0.8702	1.54

CCCBr + ClC(Cl)(Cl)Cl
viscosity [mPa·s], 101 kPa
Conditions	293.15 K	303.15 K	313.15 K	323.15 K
x1 = 0.143	0.855	0.76	0.678	0.61
x1 = 0.294	0.775	0.691	0.621	0.562
x1 = 0.445	0.7	0.625	0.565	0.512
x1 = 0.625	0.637	0.581	0.52	0.472

— the CheMixHub viscosity set
